experiment: recombinant UMI read abundance after kanamycin selection (control-corrected) (log10(CPM+1)); higher = more efficient recombination; extreme values may be limits of the assay; sequences stand for … in AGTGCAGAGAAAATCGGCCAGTTTTCTCTGCCTGCAGTCCGCATGCCGTGGGACCCCTTGGGTTCTAACCTGTTGCCTAGATTTATGCAGCGGACTGCCTTTCTCCCAAAGTGATAAACCGG…AGGTTGGTTTCACT; site = the 11-nt donor
Method in brief: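 Pooled Escherichia coli screen of donor and donor-binding-loop pairs for the IS621 bridge recombinase. Each pair sits with a 12-nt UMI on a plasmid carrying a promoterless kanamycin gene. The library was co-electroporated with a target plasmid encoding a fixed target and T7-inducible recombinase, then plated with IPTG (0.07 mM) plus kanamycin, or unselected, each in two replicates. Recombinant UMIs were PCR-amplified across the donor–target junction and sequenced. Counts became CPM, averaged over replicates, scaled by control-derived factors and reported as log10(CPM+1).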

Row | Sequence | recombinant UMI read abundance (log10)
1 | TCCTCCACATGGACCGGTTTTCCCGGTAATCCGTATTTGGT (site TCCTCCACTAC) | 0.0263
2 | TCCTCGCCATGGACCGGTTTTCCCGGTAATCCGTATTTGTT (site TCCTCGCCTAA) | 0.0142
3 | TCCTGAACATGGACCGGTTTTCCCGGTAATCCGTATTTGCT (site TCCTGAACTAG) | 0
4 | TCCTGGCCATGGACCGGTTTTCCCGGTAATCCGTATTTGTA (site TCCTGGCCTTA) | 0.0229
5 | TCCTTACCATGGACCGGTTTTCCCGGTAATCCGTATTTGGA (site TCCTTACCTTC) | 0.00485
6 | TCCTTCGCATGGACCGGTTTTCCCGGTAATCCGTATTTGCT (site GATCCACCTTC) | 0.0105
7 | TCGAAAACATGGACCGGTTTTCCCGGTAATCCGTATTTGCT (site ACGAAAACTAG) | 0
8 | TCGAAAACATGGACCGGTTTTCCCGGTAATCCGTATTTGCT (site CCGAAAACTAG) | 0.679
9 | TCGAAAACATGGACCGGTTTTCCCGGTAATCCGTATTTGCT (site GCGAAAACTAG) | 0
10 | TCGAAAACATGGACCGGTTTTCCCGGTAATCCGTATTTGCT (site TCGAAAACTAG) | 0
11 | TCGAAGTCATGGACCGGTTTTCCCGGTAATCCGTATTTGCG (site TCGAAGTCTCG) | 1.9
12 | TCGACGGCATGGACCGGTTTTCCCGGTAATCCGTATTTGAC (site TCGACGGCTGT) | 0.0562
13 | TCGACGGCATGGACCGGTTTTCCCGGTAATCCGTATTTGTG (site TCGACGGCTCA) | 0.539
14 | TCGATAGCATGGACCGGTTTTCCCGGTAATCCGTATTTGGG (site TCGATAGCTCC) | 0.00329
15 | TCGATGGCATGGACCGGTTTTCCCGGTAATCCGTATTTGCC (site TCGATGGCTGG) | 0
16 | TCGATGTCATGGACCGGTTTTCCCGGTAATCCGTATTTGTA (site TCGATGTCTTA) | 1.41
17 | TCGATGTCATGGACCGGTTTTCCCGGTAATCCGTATTTGTG (site TCGATGTCTCA) | 0.868
18 | TCGCAAACATGGACCGGTTTTCCCGGTAATCCGTATTTGCC (site TCGCAAACTGG) | 0
19 | TCGCAACCATGGACCGGTTTTCCCGGTAATCCGTATTTGTT (site TCGCAACCTAA) | 0
20 | TCGCATGCATGGACCGGTTTTCCCGGTAATCCGTATTTGGT (site TCGCATGCTAC) | 0.656
21 | TCGCCAGCATGGACCGGTTTTCCCGGTAATCCGTATTTGTG (site TCGCCAGCTCA) | 0.0192
22 | TCGCCATCATGGACCGGTTTTCCCGGTAATCCGTATTTGTT (site TCGCCATCTAA) | 0.0036
23 | TCGCCTTCATGGACCGGTTTTCCCGGTAATCCGTATTTGGT (site TAGCCTTCTAC) | 0.0118
24 | TCGCCTTCATGGACCGGTTTTCCCGGTAATCCGTATTTGGT (site TCGCCTTCTAC) | 0.00817
25 | TCGCCTTCATGGACCGGTTTTCCCGGTAATCCGTATTTGGT (site TGGCCTTCTAC) | 0.00543

Row | Sequence | recombinant UMI read abundance (log10)
26 | TCGCCTTCATGGACCGGTTTTCCCGGTAATCCGTATTTGGT (site TTGCCTTCTAC) | 0.00786
27 | TCGCGAACATGGACCGGTTTTCCCGGTAATCCGTATTTGTA (site TCGCGAACTTA) | 1.18
28 | TCGCTAGCATGGACCGGTTTTCCCGGTAATCCGTATTTGAA (site TAGCTAGCTTT) | 0.00313
29 | TCGCTAGCATGGACCGGTTTTCCCGGTAATCCGTATTTGAA (site TCGCTAGCTTT) | 0.00622
30 | TCGCTAGCATGGACCGGTTTTCCCGGTAATCCGTATTTGAA (site TGGCTAGCTTT) | 0
31 | TCGCTAGCATGGACCGGTTTTCCCGGTAATCCGTATTTGAA (site TTGCTAGCTTT) | 0.0117
32 | TCGCTAGCATGGACCGGTTTTCCCGGTAATCCGTATTTGGC (site TCGCTAGCTGC) | 0
33 | TCGCTGTCATGGACCGGTTTTCCCGGTAATCCGTATTTGGA (site TCGCTGTCTTC) | 1.34
34 | TCGGAGACATGGACCGGTTTTCCCGGTAATCCGTATTTGAT (site TCGGAGACTAT) | 1.93
35 | TCGGATACATGGACCGGTTTTCCCGGTAATCCGTATTTGCC (site TCGGATACTGG) | 0.615
36 | TCGGATCCATGGACCGGTTTTCCCGGTAATCCGTATTTGTC (site TCGGATCCTGA) | 0.795
37 | TCGGATGCATGGACCGGTTTTCCCGGTAATCCGTATTTGAG (site TCGGATGCTCT) | 1.56
38 | TCGGTATCATGGACCGGTTTTCCCGGTAATCCGTATTTGCA (site ACAGTATCTTG) | 1.54
39 | TCGGTATCATGGACCGGTTTTCCCGGTAATCCGTATTTGCA (site TCGGTATCTTG) | 2.31
40 | TCGTAGCCATGGACCGGTTTTCCCGGTAATCCGTATTTGTG (site TCGTAGCCTCA) | 0.0471
41 | TCGTATGCATGGACCGGTTTTCCCGGTAATCCGTATTTGAC (site TCGTATGCTGT) | 0.101
42 | TCGTCACCATGGACCGGTTTTCCCGGTAATCCGTATTTGTG (site TCGTCACCTCA) | 0.0129
43 | TCGTGACCATGGACCGGTTTTCCCGGTAATCCGTATTTGCA (site TCGTGACCTTG) | 0
44 | TCGTTCCCATGGACCGGTTTTCCCGGTAATCCGTATTTGAC (site TCGTTCCCTGT) | 0
45 | TCTAAAGCATGGACCGGTTTTCCCGGTAATCCGTATTTGAT (site ACTAAAGCTAT) | 0
46 | TCTAAAGCATGGACCGGTTTTCCCGGTAATCCGTATTTGAT (site CCTAAAGCTAT) | 0
47 | TCTAAAGCATGGACCGGTTTTCCCGGTAATCCGTATTTGAT (site GCTAAAGCTAT) | 0
48 | TCTAAAGCATGGACCGGTTTTCCCGGTAATCCGTATTTGAT (site TCTAAAGCTAT) | 0.373
49 | TCTAATTCATGGACCGGTTTTCCCGGTAATCCGTATTTGAA (site TCTAATTCTTT) | 0
50 | TCTAGACCATGGACCGGTTTTCCCGGTAATCCGTATTTGCC (site TCTAGACCTGG) | 0

Row | Sequence | recombinant UMI read abundance (log10)
51 | TCTATGCCATGGACCGGTTTTCCCGGTAATCCGTATTTGTT (site TCTATGCCTAA) | 0.00238
52 | TCTGATACATGGACCGGTTTTCCCGGTAATCCGTATTTGCT (site TCTGATACTAG) | 0
53 | TCTGCAACATGGACCGGTTTTCCCGGTAATCCGTATTTGAA (site TCTGCAACTTT) | 0.00363
54 | TCTGCACCATGGACCGGTTTTCCCGGTAATCCGTATTTGGA (site TCTGCACCTTC) | 0.0216
55 | TCTGCAGCATGGACCGGTTTTCCCGGTAATCCGTATTTGAA (site TCTGCAGCTTT) | 0.00333
56 | TCTGCTGCATGGACCGGTTTTCCCGGTAATCCGTATTTGGC (site TCTGCTGCTGC) | 0
57 | TCTTACCCATGGACCGGTTTTCCCGGTAATCCGTATTTGGA (site TCTTACCCTTC) | 0.0207
58 | TCTTACTCATGGACCGGTTTTCCCGGTAATCCGTATTTGCA (site TCATACTCTTG) | 0.465
59 | TCTTACTCATGGACCGGTTTTCCCGGTAATCCGTATTTGCA (site TCCTACTCTTG) | 1.09
60 | TCTTACTCATGGACCGGTTTTCCCGGTAATCCGTATTTGCA (site TCGTACTCTTG) | 0.946
61 | TCTTACTCATGGACCGGTTTTCCCGGTAATCCGTATTTGCA (site TCTTACTCTTG) | 0.535
62 | TCTTATACATGGACCGGTTTTCCCGGTAATCCGTATTTGCT (site TCTTATACTAG) | 0.00302
63 | TCTTATCCATGGACCGGTTTTCCCGGTAATCCGTATTTGGA (site TCTTATCCTTC) | 0.0232
64 | TCTTCCCCATGGACCGGTTTTCCCGGTAATCCGTATTTGTA (site TATTCCCCTTA) | 0.0172
65 | TCTTCCCCATGGACCGGTTTTCCCGGTAATCCGTATTTGTA (site TCTTCCCCTTA) | 0
66 | TCTTCCCCATGGACCGGTTTTCCCGGTAATCCGTATTTGTA (site TGTTCCCCTTA) | 0.00596
67 | TCTTCCCCATGGACCGGTTTTCCCGGTAATCCGTATTTGTA (site TTTTCCCCTTA) | 0.00951
68 | TCTTGCCCATGGACCGGTTTTCCCGGTAATCCGTATTTGAT (site ACTTGCCCTAT) | 0.00765
69 | TCTTGCCCATGGACCGGTTTTCCCGGTAATCCGTATTTGAT (site CCTTGCCCTAT) | 0.0026
70 | TCTTGCCCATGGACCGGTTTTCCCGGTAATCCGTATTTGAT (site GCTTGCCCTAT) | 0.00287
71 | TCTTGCCCATGGACCGGTTTTCCCGGTAATCCGTATTTGAT (site TCTTGCCCTAT) | 0.0104
72 | TCTTTAGCATGGACCGGTTTTCCCGGTAATCCGTATTTGCA (site TCTTTAGCTTG) | 0
73 | TGAAAGACATGGACCGGTTTTCCCGGTAATCCGTATTTGTA (site TGAAAGACTTA) | 2.37
74 | TGAACACCATGGACCGGTTTTCCCGGTAATCCGTATTTGCA (site TGAACACCTTG) | 0.302
75 | TGAACATCATGGACCGGTTTTCCCGGTAATCCGTATTTGGC (site TGAACATCTGC) | 1.37

From the supplement of paper PMC11208160
